One test deals with MDCK cells. In words: Inhibition of uptake of 5-FU in MDCK cells (Test Example 4). The format is cell-based. The note with it: Canis lupus familiaris, 3H-5FU uptake versus control, harvest time (1, 3 or 5 hours) not given; for inhibition at 100 µM: 10⁻⁴ M; for inhibition at 10 µM: 10⁻⁵ M; for inhibition at 1 µM: 10⁻⁶ M. As for the experimental part:
In the assay of inhibitory activity against the 5-FU uptake of MDCK cells, the anticancer adjuvant activity of the test compound can be estimated based on the inhibitory effect on the uptake of a known anticancer drug.
The inhibitory effect of the compound of this invention on the uptake of 5-FU in MDCK cells was investigated. MDCK cells were seeded on a 24-well culture plate. When the cells became confluent, the test compound (10⁻⁶ - 10⁻⁴ M) and 3H-5FU ([…]) were simultaneously added to the medium and 1, 3 and 5 hours later, cells were harvested to determine the amount of 3H-5FU taken up with a liquid scintillation counter. The percent inhibition to control was calculated.

The test system of the next test is Colon 26 tumor cells. The test is described as follows: Colon 26 percent tumor inhibition, alone and combined with 5-FU derivatives (Test Example 3). The note with it: for % Inhibition, Combination: test compound 10 mg/kg orally once daily concurrently with 5-FU derivatives (90 mg/kg total); for % Inhibition, Single drug: test compound 10 mg/kg orally once daily, 5-FU derivatives 30 mg/kg each (90 mg/kg total) orally. The format is in vivo, BALB/c mice. As for the experimental part:
The additive effect of 5-FU derivative and the compound of this invention was tested in terms of percent tumor inhibition. Colon 26 tumor cells were transplanted subcutaneously to groups of 8 BALB/c mice and the treatment was instituted when the tumor volume amounted to about 50-100 mm³. Each of the test com pound was suspended in 0.5% methylcellulose and admin istered orally in a dose of 10 mg/kg once daily for 14 days in (1) and for 21 days in (2) and (3). As 5-FU derivatives Mifurol™, Furtulon™ and Sunfural™ were used, and all the drugs were administered orally in a dose of 30mg/kg, or 90 mg/kg as total dose of three drugs. The combination group received these 5-FU derivatives concurrently with the test drug. The single drug group received each test compound alone orally.

Test [1] can be described thus: Anticancer effect in unspecified in vitro test systems (Test Example 6). The conditions noted are these: in vitro test systems which the inventor used, not described.

`O=C(Nc1nc(NC(=O)c2cccnc2)nc(-c2ccccc2)n1)c1cccnc1` [Compound No. 102, 2,4-Dinicotinoylamino-6-phenyl-1,3,5-triazine]: in the test with MDCK cells, 100 µM produced 62% inhibition; testing at 10 µM gave an inhibition of 59%; the inhibition (in general, the change of the read-out against control, counted positive when it falls) at 1 µM worked out at 86%.
In the test with MDCK cells, `Nc1nc(NC(=O)c2ccccc2)nc(-c2ccccc2)n1` [Compound No. 103, 2-Amino-4-benzoylamino-6-phenyl-1,3,5-triazine] registered an inhibition at 100 µM of 50% and an inhibition at 10 µM of 58%.
On to `O=C(Nc1nc(NC(=O)c2ccccc2)nc(-c2ccccc2)n1)c1ccccc1` [Compound No. 104, 2,4-Dibenzoylamino-6-phenyl-1,3,5-triazine], for which, in the test with MDCK cells, the inhibition at 100 µM was 44%, at 10 µM the inhibition was 50% and the inhibition at 1 µM turned out to be 60%.
In the test on MDCK cells, `Nc1nc(N)nc(-c2ccc(Cl)c(Cl)c2)n1` [Compound No. 156, 2,4-Diamino-6-(3,4-dichlorophenyl)-1,3,5-triazine] registered an inhibition at 100 µM of 56%, an inhibition at 10 µM of 73% and an inhibition at 1 µM of 85%.
For the compound `Nc1nc(N)nc(-c2cccc(Cl)c2)n1` [Compound No. 159, 2,4-Diamino-6-(3-chlorophenyl)-1,3,5-triazine], in the test on Colon 26 tumor cells (Test (1): 14 days), the “% Inhibition, Combination” value turned out to be 50.9% and the “% Inhibition, Single drug” value was found to be 2.0%.
`COCCOc1ccc(Cl)cc1-c1nc(N)nc(N)n1` [Compound No. 221, 2,4-Diamino-6-[5-chloro-2-(2-methoxyethoxy)phenyl]-1,3,5-triazine]: in the test on Colon 26 tumor cells (Test (3): 21 days), the “% Inhibition, Combination” value came out at 76.5% and the “% Inhibition, Single drug” value turned out to be 18.1%.
In the case of `COc1ccc(-c2nc(N)nc(N)n2)cc1OC` [Compound No. 259, 2,4-Diamino-6-(3,4-dimethoxyphenyl)-1,3,5-triazine], in the test with Colon 26 tumor cells (Test (1): 14 days), the “% Inhibition, Combination” value is on record as 45.6% and the “% Inhibition, Single drug” value is 9.2%. In the test with MDCK cells, this compound had an inhibition at 100 µM of 62%, an inhibition at 10 µM of 66% and an inhibition at 1 µM of 77%.
Turning to `Nc1nc(NC(=O)c2cccnc2)nc(-c2cc(Cl)ccc2Cl)n1` [Compound No. 262, 2-Amino-4-nicotinoylamino-6-(2,5-dichlorophenyl)-1,3,5-triazine], in the test on Colon 26 tumor cells (Test (3): 21 days), the “% Inhibition, Combination” value is on record as 48.8% and the “% Inhibition, Single drug” value turned out to be 19.2%. In addition, in the test with MDCK cells, the inhibition at 100 µM stood at 46% and the inhibition at 10 µM came out at 58%.
For `Nc1nc(NC(=O)c2cccnc2)nc(-c2ccc(Cl)c(Cl)c2)n1` [Compound No. 263, 2-Amino-4-nicotinoylamino-6-(3,4-dichlorophenyl)-1,3,5-triazine], in the test with Colon 26 tumor cells (Test (1): 14 days), the “% Inhibition, Combination” value turned out to be 47.9% and the “% Inhibition, Single drug” value was found to be 7.0%. Moreover, in the test with Colon 26 tumor cells (Test (3): 21 days), the “% Inhibition, Combination” value amounted to 52.0% and the “% Inhibition, Single drug” value is listed as 8.9%.
Take `COc1ccc(-c2nc(N)nc(NC(=O)c3cccnc3)n2)cc1OC` [Compound No. 264, 2-Amino-4-nicotinoylamino-6-(3,4-dimethoxyphenyl)-1,3,5-triazine]: in the test on MDCK cells, at 100 µM the inhibition was 56%, the inhibition at 10 µM is 62% and the inhibition at 1 µM was determined as 89%.
In the same order, the values of `Nc1nc(N)nc(-c2ccc(OCc3ccccc3)cc2)n1` [Compound No. 345, 2,4-Diamino-6-(4-benzyloxyphenyl)-1,3,5-triazine] are 70%, 63% and 63%.
In the test with MDCK cells, `CC(=O)c1cccc(-c2nc(N)nc(N)n2)c1` [Compound No. 347, 2,4-Diamino-6-(3-acetylphenyl)-1,3,5-triazine] yielded an inhibition at 100 µM of 49% and an inhibition at 10 µM of 61%.
Regarding `Nc1cccc(-c2nc(N)nc(N)n2)c1` [Compound No. 352, 2,4-Diamino-6-(3-aminophenyl)-1,3,5-triazine], in the test with MDCK cells, the inhibition at 100 µM came to 64% and the inhibition at 10 µM is 69%.
In the test with MDCK cells, `Nc1nc(N)nc(-c2ccccc2NCc2ccccc2)n1` [Compound No. 356, 2,4-Diamino-6-(2-benzylaminophenyl)-1,3,5-triazine] registered an inhibition at 100 µM of 51%, an inhibition at 10 µM of 73% and an inhibition at 1 µM of 91%.
As for `Nc1nc(N)nc(-c2ccc(Br)c(Br)c2)n1` [Compound No. 405, 2,4-Diamino-6-(3,4-dibromophenyl)-1,3,5-triazine], in the test on MDCK cells, testing at 100 µM gave an inhibition of 62% and the inhibition at 10 µM stood at 59%.
As to `Nc1nc(N)nc(-c2ccccc2)n1` [compound 100, 2,4-Diamino-6-phenyl-1,3,5-triazine], in test [1], the “anticancer effect in vitro” value is reported as “strong anticancer effect”.
`CCONc1nc(N)nc(-c2cc(Cl)ccc2Cl)n1` [compound 183, 2-Amino-4-ethoxyamino-6-(2,5-dichlorophenyl)-1,3,5-triazine]: the “anticancer effect in vitro” value in test [1] is reported as “strong anticancer effect”.
`Nc1nc(N)nc(-c2cc(Br)ccc2F)n1` [compound 215, 2,4-Diamino-6-(5-bromo-2-fluorophenyl)-1,3,5-triazine]: the “anticancer effect in vitro” value in test [1] is on record as “strong anticancer effect”.
Regarding `COc1ccccc1-c1nc(N)nc(N)n1` [compound 255, 2,4-Diamino-6-(2-methoxyphenyl)-1,3,5-triazine], in test [1], the “anticancer effect in vitro” value is reported as “strong anticancer effect”.
Consider `Nc1nc(N)nc(-c2cc([N+](=O)[O-])ccc2Cl)n1` [compound 374, 2,4-Diamino-6-(2-chloro-5-nitrophenyl)-1,3,5-triazine], for which the “anticancer effect in vitro” value in test [1] was “strong anticancer effect”.
The same measure, in the same setting: for `Cc1ccc(Cl)cc1-c1nc(N)nc(N)n1` [compound 380, 2,4-Diamino-6-(5-chloro-2-methylphenyl)-1,3,5-triazine] the value was “strong anticancer effect”.
As to `Nc1nc(N)[n+]([O-])c(-c2cc(Cl)ccc2Cl)n1` [compound 1001, 2,4-Diamino-6-(2,5-dichlorophenyl)-1,3,5-triazine N-oxide], the “anticancer effect in vitro” value in test [1] is listed as “strong anticancer effect”.
